Experimental data reported in US20250171438A1 (Agios Pharmaceuticals, Inc., priority 2022, published 2025).

Target: T1, human PAH with the R408W mutation (Homo sapiens, UniProt P00439, R408W)
T1 construct: expressed in transfected cells
T1 sequence (P00439 1-452 R408W): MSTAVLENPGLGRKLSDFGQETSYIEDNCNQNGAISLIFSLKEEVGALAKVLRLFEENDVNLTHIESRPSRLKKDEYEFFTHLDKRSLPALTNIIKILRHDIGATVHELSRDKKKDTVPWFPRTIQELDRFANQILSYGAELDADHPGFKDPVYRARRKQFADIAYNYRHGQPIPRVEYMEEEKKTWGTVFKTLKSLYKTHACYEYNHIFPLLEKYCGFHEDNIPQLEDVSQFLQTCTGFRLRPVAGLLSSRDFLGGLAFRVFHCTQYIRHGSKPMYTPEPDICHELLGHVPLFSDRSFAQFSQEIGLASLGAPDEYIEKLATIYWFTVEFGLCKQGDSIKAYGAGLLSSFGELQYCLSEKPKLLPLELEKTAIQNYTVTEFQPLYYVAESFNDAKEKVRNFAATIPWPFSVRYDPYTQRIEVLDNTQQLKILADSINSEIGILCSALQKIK
Assay: Cell Based Phenylalanine Flux Assay
Details: A375 cells expressing human R408W PAH; 24 hrs compound incubation; 13C-Tyrosine by LC-MS; average where tested multiple times; read-out: AC50

AC50 [nM]	Compound
< 500	CC(C)(O)c1nc(Cl)c(C(=O)N2CCc3[nH]cnc3[C@H]2c2nc3c(F)cccc3s2)o1 [Example 1935, (S)-(4-chloro-2-(2-hydroxypropan-2-yl)oxazol-5-yl)(4-(4-fluorobenzo[d]thiazol-2-yl)-6,7-dihydro-1H-imidazo[4,5-c]pyridin-5(4H)-yl)methanone]
1000 to 5000	CC(C)(O)c1nc(Cl)c(C(=O)N2CCc3[nH]cnc3[C@@H]2c2nc3c(F)cccc3s2)o1 [Example 1936, (R)-(4-chloro-2-(2-hydroxypropan-2-yl)oxazol-5-yl)(4-(4-fluorobenzo[d]thiazol-2-yl)-6,7-dihydro-1H-imidazo[4,5-c]pyridin-5(4H)-yl)methanone]
500 to 1000	Cn1nc(Cl)nc1C(=O)N1CCc2[nH]cnc2[C@H]1c1nc2ccccc2s1 [Example 1937]
1000 to 5000	Cn1nc(Cl)nc1C(=O)N1CCc2[nH]cnc2[C@@H]1c1nc2ccccc2s1 [Example 1938, (R)-(4-(benzo[d]thiazol-2-yl)-6,7-dihydro-1H-imidazo[4,5-c]pyridin-5(4H)-yl)(3-chloro-1-methyl-1H-1,2,4-triazol-5-yl)methanone]
500 to 1000	O=C(c1nnc(-c2cnn(S(=O)(=O)C3CC3)c2)o1)N1CCc2[nH]cnc2[C@H]1c1nc2ccccc2s1 [Example 1939]
1000 to 5000	O=C(c1nnc(-c2cnn(S(=O)(=O)C3CC3)c2)o1)N1CCc2[nH]cnc2[C@@H]1c1nc2ccccc2s1 [Example 1940, (R)-(4-(benzo[d]thiazol-2-yl)-6,7-dihydro-1H-imidazo[4,5-c]pyridin-5(4H)-yl)(5-(1-(cyclopropylsulfonyl)-1H-pyrazol-4-yl)-1,3,4-oxadiazol-2-yl)methanone]
< 500	Cc1n[nH]cc1-c1nnc(C(=O)N2CCc3[nH]cnc3[C@H]2c2nc3ccccc3s2)o1 [Example 1941]
1000 to 5000	Cc1n[nH]cc1-c1nnc(C(=O)N2CCc3[nH]cnc3[C@@H]2c2nc3ccccc3s2)o1 [Example 1942, (R)-(4-(benzo[d]thiazol-2-yl)-6,7-dihydro-1H-imidazo[4,5-c]pyridin-5(4H)-yl)(5-(3-methyl-1H-pyrazol-4-yl)-1,3,4-oxadiazol-2-yl)methanone]
1000 to 5000	Cc1cc(-c2nnc(C(=O)N3CCc4[nH]cnc4[C@@H]3c3nc4ccccc4s3)o2)nn1C [Example 1943, (R)-(4-(benzo[d]thiazol-2-yl)-6,7-dihydro-1H-imidazo[4,5-c]pyridin-5(4H)-yl)(5-(1,5-dimethyl-1H-pyrazol-3-yl)-1,3,4-oxadiazol-2-yl)methanone]
500 to 1000	Cc1cc(-c2nnc(C(=O)N3CCc4[nH]cnc4[C@H]3c3nc4ccccc4s3)o2)nn1C [Example 1944]
< 500	Cn1nccc1-c1nnc(C(=O)N2CCc3[nH]cnc3[C@H]2c2nc3ccccc3s2)o1 [Example 1945]
1000 to 5000	Cn1nccc1-c1nnc(C(=O)N2CCc3[nH]cnc3[C@@H]2c2nc3ccccc3s2)o1 [Example 1946, (R)-(4-(benzo[d]thiazol-2-yl)-6,7-dihydro-1H-imidazo[4,5-c]pyridin-5(4H)-yl)(5-(1-methyl-1H-pyrazol-5-yl)-1,3,4-oxadiazol-2-yl)methanone]
< 500	Cc1cnn(C)c1-c1nnc(C(=O)N2CCc3[nH]cnc3[C@H]2c2nc3ccccc3s2)o1 [Example 1947]
1000 to 5000	Cc1cnn(C)c1-c1nnc(C(=O)N2CCc3[nH]cnc3[C@@H]2c2nc3ccccc3s2)o1 [Example 1948, (R)-(4-(benzo[d]thiazol-2-yl)-6,7-dihydro-1H-imidazo[4,5-c]pyridin-5(4H)-yl)(5-(1,4-dimethyl-1H-pyrazol-5-yl)-1,3,4-oxadiazol-2-yl)methanone]
500 to 1000	Cc1nc(C2(O)CC2)oc1C(=O)N1CCc2[nH]cnc2[C@H]1c1nc2c(F)cccc2s1 [Example 1949, (S)-(4-(4-fluorobenzo[d]thiazol-2-yl)-6,7-dihydro-1H-imidazo[4,5-c]pyridin-5(4H)-yl)(2-(1-hydroxycyclopropyl)-4-methyloxazol-5-yl)methanone]
> 5000	Cc1nc(C2(O)CC2)oc1C(=O)N1CCc2[nH]cnc2[C@@H]1c1nc2c(F)cccc2s1 [Example 1950, (R)-(4-(4-fluorobenzo[d]thiazol-2-yl)-6,7-dihydro-1H-imidazo[4,5-c]pyridin-5(4H)-yl)(2-(1-hydroxycyclopropyl)-4-methyloxazol-5-yl)methanone]
500 to 1000	CC(C)n1ncc(C(=O)N2CCc3[nH]cnc3[C@H]2c2nc3c(F)cccc3s2)c1Cl [Example 1951]
1000 to 5000	CC(C)n1ncc(C(=O)N2CCc3[nH]cnc3[C@@H]2c2nc3c(F)cccc3s2)c1Cl [Example 1952, (R)-(5-chloro-1-isopropyl-1H-pyrazol-4-yl)(4-(4-fluorobenzo[d]thiazol-2-yl)-6,7-dihydro-1H-imidazo[4,5-c]pyridin-5(4H)-yl)methanone]

AC50 [nM]	Compound
500 to 1000	CC(C)n1ncc(C(=O)N2CCc3[nH]cnc3[C@H]2c2nc3c(F)cccc3s2)c1Br [Example 1953]
1000 to 5000	CC(C)n1ncc(C(=O)N2CCc3[nH]cnc3[C@@H]2c2nc3c(F)cccc3s2)c1Br [Example 1954, (R)-(5-bromo-1-isopropyl-1H-pyrazol-4-yl)(4-(4-fluorobenzo[d]thiazol-2-yl)-6,7-dihydro-1H-imidazo[4,5-c]pyridin-5(4H)-yl)methanone]
< 500	Cn1nc(Cl)nc1C(=O)N1CCc2[nH]cnc2[C@H]1c1nc2c(F)cccc2s1 [Example 1955]
1000 to 5000	Cn1nc(Cl)nc1C(=O)N1CCc2[nH]cnc2[C@@H]1c1nc2c(F)cccc2s1 [Example 1956, (R)-(3-chloro-1-methyl-1H-1,2,4-triazol-5-yl)(4-(4-fluorobenzo[d]thiazol-2-yl)-6,7-dihydro-1H-imidazo[4,5-c]pyridin-5(4H)-yl)methanone]
< 500	CCn1ncnc1C(=O)N1CCc2[nH]cnc2[C@@H]1c1nc2ccccc2s1 [Example 1957, (R)-(4-(benzo[d]thiazol-2-yl)-6,7-dihydro-1H-imidazo[4,5-c]pyridin-5(4H)-yl)(1-ethyl-1H-1,2,4-triazol-5-yl)methanone]
< 500	CCn1ncnc1C(=O)N1CCc2[nH]cnc2[C@H]1c1nc2ccccc2s1 [Example 1958]
< 500	CCn1ncnc1C(=O)N1CCc2[nH]cnc2[C@H]1c1nc2c(F)cccc2s1 [Example 1959]
1000 to 5000	CCn1ncnc1C(=O)N1CCc2[nH]cnc2[C@@H]1c1nc2c(F)cccc2s1 [Example 1960, (R)-(1-ethyl-1H-1,2,4-triazol-5-yl)(4-(4-fluorobenzo[d]thiazol-2-yl)-6,7-dihydro-1H-imidazo[4,5-c]pyridin-5(4H)-yl)methanone]
< 500	C[C@H](O)c1nc(C(F)F)c(C(=O)N2CCc3[nH]cnc3[C@H]2c2nc3c(F)cccc3s2)o1 [Example 1961, (4-(difluoromethyl)-2-((S)-1-hydroxyethyl)oxazol-5-yl) ((S)-4-(4-fluorobenzo[d]thiazol-2-yl)-6,7-dihydro-1H-imidazo[4,5-c]pyridin-5(4H)-yl)methanone]
1000 to 5000	C[C@H](O)c1nc(C(F)F)c(C(=O)N2CCc3[nH]cnc3[C@@H]2c2nc3c(F)cccc3s2)o1 [Example 1962, (4-(difluoromethyl)-2-((S)-1-hydroxyethyl)oxazol-5-yl)((R)-4-(4-fluorobenzo[d]thiazol-2-yl)-6,7-dihydro-1H-imidazo[4,5-c]pyridin-5(4H)-yl)methanone]
< 500	CC(C)(O)c1nc(Cl)c(C(=O)N2CCc3[nH]cnc3[C@H]2c2nc3ccccc3s2)o1 [Example 1963]
1000 to 5000	CC(C)(O)c1nc(Cl)c(C(=O)N2CCc3[nH]cnc3[C@@H]2c2nc3ccccc3s2)o1 [Example 1964, (R)-(4-(benzo[d]thiazol-2-yl)-6,7-dihydro-1H-imidazo[4,5-c]pyridin-5(4H)-yl)(4-chloro-2-(2-hydroxypropan-2-yl)oxazol-5-yl)methanone]
500 to 1000	O=C(c1nnc(-c2c[nH]nc2C(F)(F)F)o1)N1CCc2[nH]cnc2[C@H]1c1nc2ccccc2s1 [Example 1965]
1000 to 5000	O=C(c1nnc(-c2c[nH]nc2C(F)(F)F)o1)N1CCc2[nH]cnc2[C@@H]1c1nc2ccccc2s1 [Example 1966, (R)-(4-(benzo[d]thiazol-2-yl)-6,7-dihydro-1H-imidazo[4,5-c]pyridin-5(4H)-yl)(5-(3-(trifluoromethyl)-1H-pyrazol-4-yl)-1,3,4-oxadiazol-2-yl)methanone]
< 500	O=C(c1cnn(CC(F)(F)F)c1Cl)N1CCc2[nH]cnc2[C@H]1c1nc2c(F)cccc2s1 [Example 1967, (S)-(5-chloro-1-(2,2,2-trifluoroethyl)-1H-pyrazol-4-yl)(4-(4-fluorobenzo[d]thiazol-2-yl)-6,7-dihydro-1H-imidazo[4,5-c]pyridin-5(4H)-yl)methanone]
1000 to 5000	O=C(c1cnn(CC(F)(F)F)c1Cl)N1CCc2[nH]cnc2[C@@H]1c1nc2c(F)cccc2s1 [Example 1968, (R)-(5-chloro-1-(2,2,2-trifluoroethyl)-1H-pyrazol-4-yl)(4-(4-fluorobenzo[d]thiazol-2-yl)-6,7-dihydro-1H-imidazo[4,5-c]pyridin-5(4H)-yl)methanone]
500 to 1000	O=C(c1cnn(C2CC2)c1Cl)N1CCc2[nH]cnc2[C@H]1c1nc2c(F)cccc2s1 [Example 1969]
1000 to 5000	O=C(c1cnn(C2CC2)c1Cl)N1CCc2[nH]cnc2[C@@H]1c1nc2c(F)cccc2s1 [Example 1970, (R)-(5-chloro-1-cyclopropyl-1H-pyrazol-4-yl)(4-(4-fluorobenzo[d]thiazol-2-yl)-6,7-dihydro-1H-imidazo[4,5-c]pyridin-5(4H)-yl)methanone]
